Experimental data from the supplement of paper PMC11451515.

System: SEM cells
Test: cell viability relative to DMSO control; higher = less cytotoxic
Conditions: 48 h
How it was run: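 Before seeding, each leukemia line was adapted for at least four passages in each medium. NOMO1 or SEM cells (500 cells/well) and P12-Ichikawa cells (1000 cells/well) went into 1536-well plates at 5 μl, then received library compounds in DMSO by pin dosing across 11 threefold concentrations, 47 μM to 0.79 nM. Readout was CellTiter-Glo One luminescence after 48 h at 37°C, and viability is given as a per-plate percentage of DMSO wells, with cell-free wells as background.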

[1] = HPLM + 10% dialyzed FBS, 0.000781 µM
[2] = HPLM + 10% dialyzed FBS, 0.00234 µM
[3] = HPLM + 10% dialyzed FBS, 0.00702 µM
[4] = HPLM + 10% dialyzed FBS, 0.0211 µM
[5] = HPLM + 10% dialyzed FBS, 0.0632 µM
[6] = HPLM + 10% dialyzed FBS, 0.19 µM
[7] = HPLM + 10% dialyzed FBS, 0.569 µM
[8] = HPLM + 10% dialyzed FBS, 1.71 µM
[9] = HPLM + 10% dialyzed FBS, 5.12 µM
[10] = HPLM + 10% dialyzed FBS, 15.4 µM
[11] = HPLM + 10% dialyzed FBS, 46.1 µM
[12] = RPMI 5 mM glucose + 10% FBS, 0.000781 µM
[13] = RPMI 5 mM glucose + 10% FBS, 0.00234 µM
[14] = RPMI 5 mM glucose + 10% FBS, 0.00702 µM
[15] = RPMI 5 mM glucose + 10% FBS, 0.0211 µM
[16] = RPMI 5 mM glucose + 10% FBS, 0.0632 µM
[17] = RPMI 5 mM glucose + 10% FBS, 0.19 µM
[18] = RPMI 5 mM glucose + 10% FBS, 0.569 µM
[19] = RPMI 5 mM glucose + 10% FBS, 1.71 µM
[20] = RPMI 5 mM glucose + 10% FBS, 5.12 µM
[21] = RPMI 5 mM glucose + 10% FBS, 15.4 µM
[22] = RPMI 5 mM glucose + 10% FBS, 46.1 µM
[23] = RPMI 5 mM glucose + 10% dialyzed FBS, 0.000781 µM
[24] = RPMI 5 mM glucose + 10% dialyzed FBS, 0.00234 µM
[25] = RPMI 5 mM glucose + 10% dialyzed FBS, 0.00702 µM
[26] = RPMI 5 mM glucose + 10% dialyzed FBS, 0.0211 µM
[27] = RPMI 5 mM glucose + 10% dialyzed FBS, 0.0632 µM
[28] = RPMI 5 mM glucose + 10% dialyzed FBS, 0.19 µM
[29] = RPMI 5 mM glucose + 10% dialyzed FBS, 0.569 µM
[30] = RPMI 5 mM glucose + 10% dialyzed FBS, 1.71 µM
[31] = RPMI 5 mM glucose + 10% dialyzed FBS, 5.12 µM
[32] = RPMI 5 mM glucose + 10% dialyzed FBS, 15.4 µM
[33] = RPMI 5 mM glucose + 10% dialyzed FBS, 46.1 µM

COc1ccc(Cc2nccc3cc(OC)c(OC)cc23)cc1OC
cell viability [1]: 105% | cell viability [2]: 126% | cell viability [3]: 111% | cell viability [4]: 131% | cell viability [5]: 126% | cell viability [6]: 124% | cell viability [7]: 127% | cell viability [8]: 128% | cell viability [9]: 134% | cell viability [10]: 121% | cell viability [11]: 88% | cell viability [12]: 110% | cell viability [13]: 125% | cell viability [14]: 117% | cell viability [15]: 120% | cell viability [16]: 131% | cell viability [17]: 130% | cell viability [18]: 118% | cell viability [19]: 109% | cell viability [20]: 123% | cell viability [21]: 110% | cell viability [22]: 53.9% | cell viability [23]: 109% | cell viability [24]: 107% | cell viability [25]: 110% | cell viability [26]: 110% | cell viability [27]: 99.5% | cell viability [28]: 109% | cell viability [29]: 105% | cell viability [30]: 118% | cell viability [31]: 94% | cell viability [32]: 111% | cell viability [33]: 54.3%

NC(=O)c1ccc(-c2nc(-c3ccc4c(c3)OCCO4)c(-c3ccccn3)[nH]2)cc1
cell viability [1]: 116% | cell viability [2]: 124% | cell viability [3]: 109% | cell viability [4]: 119% | cell viability [5]: 120% | cell viability [6]: 136% | cell viability [7]: 135% | cell viability [8]: 132% | cell viability [9]: 143% | cell viability [10]: 130% | cell viability [11]: 126% | cell viability [12]: 100% | cell viability [13]: 112% | cell viability [14]: 96.3% | cell viability [15]: 114% | cell viability [16]: 105% | cell viability [17]: 111% | cell viability [18]: 102% | cell viability [19]: 110% | cell viability [20]: 119% | cell viability [21]: 112% | cell viability [22]: 108% | cell viability [23]: 119% | cell viability [24]: 126% | cell viability [25]: 111% | cell viability [26]: 137% | cell viability [27]: 121% | cell viability [28]: 118% | cell viability [29]: 124% | cell viability [30]: 131% | cell viability [31]: 122% | cell viability [32]: 138% | cell viability [33]: 146%

CC1(C)[C@@H](O[C@H]2O[C@H](C(=O)O)[C@@H](O)[C@H](O)[C@H]2O[C@@H]2O[C@H](C(=O)O)[C@@H](O)[C@H](O)[C@H]2O)CC[C@]2(C)[C@H]3C(=O)C=C4[C@@H]5C[C@@](C)(C(=O)O)CC[C@]5(C)CC[C@@]4(C)[C@]3(C)CC[C@@H]12
cell viability [1]: 116% | cell viability [2]: 113% | cell viability [3]: 117% | cell viability [4]: 104% | cell viability [5]: 145% | cell viability [6]: 114% | cell viability [7]: 143% | cell viability [8]: 128% | cell viability [9]: 150% | cell viability [10]: 165% | cell viability [11]: 163%

COCCOC(=O)C/1=C(C)/NC/2=C(C1C3=CC=CC(=C3)O)/C(=O)CC(C2)C4=C(OC)C=CC=C4 (stereo not drawn)
cell viability [1]: 90.2% | cell viability [2]: 80.6% | cell viability [3]: 106% | cell viability [4]: 108% | cell viability [5]: 98.2% | cell viability [6]: 87.7% | cell viability [7]: 100% | cell viability [8]: 101% | cell viability [9]: 94.3% | cell viability [10]: 57% | cell viability [11]: 30.1% | cell viability [12]: 98.9% | cell viability [13]: 96.8% | cell viability [14]: 97.8% | cell viability [15]: 126% | cell viability [16]: 103% | cell viability [17]: 90.6% | cell viability [18]: 115% | cell viability [19]: 90.8% | cell viability [20]: 78.5% | cell viability [21]: 45.6% | cell viability [22]: 24.4% | cell viability [23]: 80.8% | cell viability [24]: 79.2% | cell viability [25]: 122% | cell viability [26]: 104% | cell viability [27]: 105% | cell viability [28]: 82.4% | cell viability [29]: 102% | cell viability [30]: 101% | cell viability [31]: 74.1% | cell viability [32]: 50.9% | cell viability [33]: 21.7%

COC1=CC=C2Nc3cc(Cl)ccc3C(N=C3C=C(CN4CCCC4)C(=O)C(CN4CCCC4)=C3)=C2N1
cell viability [1]: 90.6% | cell viability [2]: 113% | cell viability [3]: 103% | cell viability [4]: 105% | cell viability [5]: 107% | cell viability [6]: 101% | cell viability [7]: 106% | cell viability [8]: 111% | cell viability [9]: 117% | cell viability [10]: 61.5% | cell viability [11]: 7.01% | cell viability [12]: 107% | cell viability [13]: 112% | cell viability [14]: 120% | cell viability [15]: 110% | cell viability [16]: 115% | cell viability [17]: 110% | cell viability [18]: 121% | cell viability [19]: 113% | cell viability [20]: 121% | cell viability [21]: 79% | cell viability [22]: 50.3% | cell viability [23]: 83.1% | cell viability [24]: 108% | cell viability [25]: 108% | cell viability [26]: 102% | cell viability [27]: 102% | cell viability [28]: 115% | cell viability [29]: 115% | cell viability [30]: 80.4% | cell viability [31]: 105% | cell viability [32]: 56.4% | cell viability [33]: 24%

Cc1cc(O)c2c3c4c(cc(O)c13)C(C)(C)C(=O)c1c(O)cc(O)c(c1-4)C2=O
cell viability [1]: 104% | cell viability [2]: 110% | cell viability [3]: 108% | cell viability [4]: 91.5% | cell viability [5]: 120% | cell viability [6]: 114% | cell viability [7]: 106% | cell viability [8]: 117% | cell viability [9]: 98.7% | cell viability [10]: 90.8% | cell viability [11]: 66.1% | cell viability [23]: 91.4% | cell viability [24]: 90.9% | cell viability [25]: 92% | cell viability [26]: 94.3% | cell viability [27]: 110% | cell viability [28]: 113% | cell viability [29]: 98% | cell viability [30]: 84.2% | cell viability [31]: 97.4% | cell viability [32]: 88.6% | cell viability [33]: 65.5%

Cl.c1cnc2cc3c(cc2n1)C1CNCC3C1
cell viability [1]: 98.5% | cell viability [2]: 102% | cell viability [3]: 104% | cell viability [4]: 104% | cell viability [5]: 118% | cell viability [6]: 113% | cell viability [7]: 114% | cell viability [8]: 122% | cell viability [9]: 108% | cell viability [10]: 113% | cell viability [11]: 119% | cell viability [12]: 98.7% | cell viability [13]: 94.4% | cell viability [14]: 91.3% | cell viability [15]: 105% | cell viability [16]: 111% | cell viability [17]: 117% | cell viability [18]: 111% | cell viability [19]: 105% | cell viability [20]: 97.7% | cell viability [21]: 110% | cell viability [22]: 120% | cell viability [23]: 101% | cell viability [24]: 93.4% | cell viability [25]: 111% | cell viability [26]: 121% | cell viability [27]: 122% | cell viability [28]: 126% | cell viability [29]: 115% | cell viability [30]: 135% | cell viability [31]: 113% | cell viability [32]: 111% | cell viability [33]: 103%
